Measurements as given in US10259818B2, “Bicyclic azaheterocyclobenzylamines as PI3K inhibitors” (Incyte Corporation, priority 2012, dated 2019).
Counter-ions that a name gives are not always drawn.

These compounds were tested on SUDHL-6 cell line (diffuse large B cell lymphoma) (assay: SUDHL-6 cell proliferation assay (Example B3)). Settings: Homo sapiens, SU-DHL-6, 72 h, SUDHL-6 cells, 3 days, Cell Titer-GLO.
Format: cell-based
Method: Example B3: SUDHL-6 Cell Proliferation Assay
SUDHL-6 cell line (diffuse large B cell lymphoma) was purchased from ATCC (Manassas, Va.) and maintained in the culture medium recommended (RPMI and 10% FBS). To measure the anti-proliferation activity of the compounds through ATP quantitation, the SUDHL-6 cells was plated with the culture medium (5000 cells/well/per 200 μl) into 96-well polystyrene clear black tissue culture plate (Greiner-bio-one through VWR, NJ) in the presence or absence of a concentration range of test compounds. After 3 days, Cell Titer-GLO Luminescent (Promega, Madison, Wis.) cell culture agent was added to each well for 10 minutes at room temperature to stabilize the luminescent signal. This determines the number of viable cells in culture based on quantitation of the ATP present, which signals the presence of metabolically active cells. Luminescence was measured with the TopCount 384 (Packard Bioscience through Perkin Elmer, Boston, Mass.). […] IC50 data for the Examples is presented in Table 4 determined by the assay of Example B3.

Structure (SMILES)	IC50
COCC(=O)N1CCOc2c(C(C)n3nc(C)c4c(N)ncnc43)cc(Cl)c(C)c2C1 (stereo not shown) [Example 21, 1-{1-[7-Chloro-4-(methoxyacetyl)-6-methyl-2,3,4,5-tetrahydro-1,4-benzoxazepin-9-yl]ethyl}-3-methyl-1H-pyrazolo[3,4-d]pyrimidin-4-amine Trifluoroacetate]	≤ 500 nM
Cc1c(Cl)cc(C(C)n2nc(C)c3c(N)ncnc32)c2c1CN(c1ncc(C#N)s1)CCO2 (stereo not shown) [Example 23, 2-[9-[1-(4-Amino-3-methyl-1H-pyrazolo[3,4-d]pyrimidin-1-yl)ethyl]-7-chloro-6-methyl-2,3-dihydro-1,4-benzoxazepin-4(5H)-yl]-1,3-thiazole-5-carbonitrile Trifluoroacetate]	≤ 500 nM
Cc1c(Cl)cc(C(C)n2nc(C)c3c(N)ncnc32)c2c1CN(c1cnccn1)CCO2 (stereo not shown) [Example 24, 1-[1-(7-Chloro-6-methyl-4-pyrazin-2-yl-2,3,4,5-tetrahydro-1,4-benzoxazepin-9-yl)ethyl]-3-methyl-1H-pyrazolo[3,4-d]pyrimidin-4-amine bis(trifluoroacetate)]	500 to 1000 nM
CC(=O)N1CC(N2CCOc3c(C(C)n4nc(C)c5c(N)ncnc54)cc(Cl)c(F)c3C2)C1 (stereo not shown) [Example 34, 1-{1-[4-(1-Acetylazetidin-3-yl)-7-chloro-6-fluoro-2,3,4,5-tetrahydro-1,4-benzoxazepin-9-yl]ethyl}-3-methyl-1H-pyrazolo[3,4-d]pyrimidin-4-amine]	≤ 500 nM
Cc1nn(C(C)c2cc(Cl)c(F)c3c2O[C@@H](C)CN(C2CC(C(=O)O)C2)C3)c2ncnc(N)c12 (stereo partly shown) [Example 41, 3-[9-[1-(4-Amino-3-methyl-1H-pyrazolo[3,4-d]pyrimidin-1-yl)ethyl]-7-chloro-6-fluoro-2-methyl-2,3-dihydro-1,4-benzoxazepin-4(5H)-yl]cyclobutanecarboxylic Acid Trifluoroacetate]	≤ 500 nM
CC(=O)N1CC(N2CCOc3c(C(C)n4nc(C)c5c(N)ncnc54)cc(Cl)c(C#N)c3C2)C1 (stereo not shown) [Example 46, 4-(1-Acetylazetidin-3-yl)-9-[1-(4-amino-3-methyl-1H-pyrazolo [3,4-d]pyrimidin-1-yl)ethyl]-7-chloro-2,3,4,5-tetrahydro-1,4-benzoxazepine-6-carbonitrile]	≤ 500 nM
Cc1nn(C(C)c2cc(Cl)c(C#N)c3c2OCCN(C2CN(CCO)C2)C3)c2ncnc(N)c12 (stereo not shown) [Example 47, 9-[1-(4-amino-3-methyl-1H-pyrazolo[3,4-d]pyrimidin-1-yl)ethyl]-7-chloro-4-[1-(2-hydroxyethyl)azetidin-3-yl]-2,3,4,5-tetrahydro-1,4-benzoxazepine-6-carbonitrile]	≤ 500 nM
Cc1nn(C(C)c2cc(Cl)c(C#N)c3c2O[C@@H](C)CN(C2CN(CCO)C2)C3)c2ncnc(N)c12 (stereo partly drawn) [Example 56, (2S)-9-[1-(4-Amino-3-methyl-1H-pyrazolo[3,4-d]pyrimidin-1-yl)ethyl]-7-chloro-4-[1-(2-hydroxyethyl)azetidin-3-yl]-2-methyl-2,3,4,5-tetrahydro-1,4-benzoxazepine-6-carbonitrile]	≤ 500 nM

Same assay, conditions: SUDHL-6 cells, 3 days, Cell Titer-GLO

Structure (SMILES)	IC50
Cc1nn(C(C)c2cc(Cl)c(F)c3c2O[C@@H](C)CN(C2CC(C(=O)O)C2)C3)c2ncnc(N)c12 (stereo partly shown) [Example 42, 3-[9-[1-(4-Amino-3-methyl-1H-pyrazolo[3,4-d]pyrimidin-1-yl)ethyl]-7-chloro-6-fluoro-2-methyl-2,3-dihydro-1,4-benzoxazepin-4(5H)-yl]cyclobutanecarboxylic Acid Trifluoroacetate]	≤ 500 nM
Cc1nn(C(C)c2cc(Cl)c(C#N)c3c2OC(C)CN(C2CN(CC(N)=O)C2)C3)c2ncnc(N)c12 (stereo not shown) [Example 51, 2-{3-[9-[1-(4-Amino-3-methyl-1H-pyrazolo[3,4-d]pyrimidin-1-yl)ethyl]-7-chloro-6-cyano-2-methyl-2,3-dihydro-1,4-benzoxazepin-4(5H)-yl]azetidin-1-yl}acetamide]	≤ 500 nM
